Laboratory results reported in patent US20200055839A1 (priority 2017, published 2020).

What follows are compounds tested on NL-RLuc virus (assay: Inhibition of HIV replication (NL-RLuc virus, luciferase readout in MT-2 cells)). Details: Human immunodeficiency virus 1, MT2, 120 h, MT-2 cells infected with NL-RLuc virus, 5 days of incubation, 10% FBS, at least 2 experiments.
Assay type: cell-based
Procedure, shortened: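 EC50 derived via median effect equation from at least 2 experiments, using luciferase expression as virus-growth readout. Replication-competent NL-RLuc reporter virus (nef partly replaced by Renilla luciferase) infected MT-2 cells with serial compound dilutions; 5-day incubation in RPMI 1640 plus 10% FBS.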
In the case of C=Cc1nc(C)c(-c2ccc(OCCc3ccc(F)cc3)cc2)c(N2CCC(C)(C)CC2)c1[C@H](OC(C)(C)C)C(=O)O [Example 1, (S)-2-(tert-Butoxy)-2-(4-(4,4-dimethylpiperidin-1-yl)-5-(4-(4-fluorophenethoxy)phenyl)-6-methyl-2-vinylpyridin-3-yl)acetic acid], the EC50 is reported as 20 nM.
With CN(Cc1nc(Cl)c([C@H](OC(C)(C)C)C(=O)O)c(N2CCC(C)(C)CC2)c1-c1ccc(OCCc2ccc(F)cc2)cc1)CC1CCOCC1 [Example 213, (S)-2-(tert-Butoxy)-2-(2-chloro-4-(4,4-dimethylpiperidin-1-yl)-5-(4-(4-fluorophenethoxy)phenyl)-6-((methyl((tetrahydro-2H-pyran-4-yl)methyl)amino)methyl)pyridin-3-yl)acetic acid] the EC50 was 0.6 nM.
Cc1ncc(-c2ccc(OCc3cccc(F)c3)cn2)c(N2CCC(C)(C)CC2)c1[C@H](OC(C)(C)C)C(=O)O [Example 343, (2S)-2-(tert-butoxy)-2-[4′-(4,4-dimethylpiperidin-1-yl)-5-[(3-fluorophenyl)methoxy]-6′-methyl-[2,3′-bipyridine]-5′-yl]acetic acid] was tested, and the EC50 was 2 nM.
For Cc1ncc(-c2ccc(CNc3ncnc4c3oc3ccccc34)c(F)c2)c(N2CCC(C)(C)CC2)c1[C@H](OC(C)(C)C)C(=O)O [Example 218, (S)-2-(5-(4-((Benzofuro[3,2-d]pyrimidin-4-ylamino)methyl)-3-fluorophenyl)-4-(4,4-dimethylpiperidin-1-yl)-2-methylpyridin-3-yl)-2-(tert-butoxy)acetic acid], the EC50 was 0.2 nM.
Compound Cc1nn(-c2nc(C)c([C@H](OC(C)(C)C)C(=O)O)c(N3CCC(C)(C)CC3)c2-c2ccc(OCCc3ccc(F)cc3)cc2)c(C)c1C [Example 75, (S)-2-(tert-Butoxy)-2-(4-(4,4-dimethylpiperidin-1-yl)-5-(4-(4-fluorophenethoxy)phenyl)-2-methyl-6-(3,4,5-trimethyl-H-pyrazol-1-yl)pyridin-3-yl)acetic acid] has an EC50 of 3 nM.
In the case of CCCCCOc1ccc(-c2cnc(C)c([C@H](OC(C)(C)C)C(=O)O)c2N2CCC(C)(C)CC2)cn1 [Example 408, (S)-2-(tert-Butoxy)-2-(4-(4,4-dimethylpiperidin-1-yl)-6-methyl-6′-(pentyloxy)-[3, 3′-bipyridin]-5-yl)acetic acid], the EC50 is reported as 2 nM.
Work on Cc1nc(-n2nc3c(c2N)CCC3)c(-c2ccc(OCCc3ccc(F)cc3)cc2)c(N2CCC(C)(C)CC2)c1[C@H](OC(C)(C)C)C(=O)O [Example 76, (S)-2-(6-(3-Amino-5,6-dihydrocyclopenta[c]pyrazol-2(4H)-yl)-4-(4,4-dimethylpiperidin-1-yl)-5-(4-(4-fluorophenethoxy)phenyl)-2-methylpyridin-3-yl)-2-(tert-butoxy)acetic acid] yielded an EC50 of 4 nM.
Cc1ncc(-c2ccccc2-c2ccccc2)c(N2CCC(C)(C)CC2)c1[C@H](OC(C)(C)C)C(=O)O [Example 138, (2S)-2-(5-{[1,1′-Biphenyl]-2-yl}-4-(4,4-dimethylpiperidin-1-yl)-2-methylpyridin-3-yl)-2-(tert-butoxy)acetic acid] was tested, and the EC50 was 71 nM.
Work on Cc1ncc(-c2ccc(OCCc3c(Cl)cccc3Cl)cn2)c(N2CCC(C)(C)CC2)c1[C@H](OC(C)(C)C)C(=O)O [Example 297, (2S)-2-(tert-butoxy)-2-{5-[2-(2,6-dichlorophenyl)ethoxy]-4′-(4,4-dimethylpiperidin-1-yl)-6′-methyl-[2,3′-bipyridine]-5′-yl}acetic acid] yielded an EC50 of 1 nM.
With COc1ccc(-c2c(CN3CCC4(CCC4)CC3)nc(C)c([C@H](OC(C)(C)C)C(=O)O)c2N2CCC(C)(C)CC2)cc1 [Example 192, (2S)-2-[6-({7-Azaspiro[3.5]nonan-7-yl}methyl)-4-(4,4-dimethylpiperidin-1-yl)-5-(4-methoxyphenyl)-2-methylpyridin-3-yl]-2-(tert-butoxy)acetic acid] the EC50 was 1 nM.
Work on Cc1nc(Nc2cncnc2)c(-c2ccc(OCCc3ccc(F)cc3)cc2)c(N2CCC(C)(C)CC2)c1[C@H](OC(C)(C)C)C(=O)O [Example 66, (S)-2-(tert-Butoxy)-2-(4-(4,4-dimethylpiperidin-1-yl)-5-(4-(4-fluorophenethoxy)phenyl)-2-methyl-6-(pyrimidin-5-ylamino)pyridin-3-yl)acetic acid] yielded an EC50 of 2 nM.
Cc1ncc(-c2ccc(O[C@H](C)C(C)C)cn2)c(N2CCC(C)(C)CC2)c1[C@H](OC(C)(C)C)C(=O)O [Example 319, (2S)-2-(tert-butoxy)-2-[4′-(4,4-dimethylpiperidin-1-yl)-6′-methyl-5-{[(2R)-3-methylbutan-2-yl]oxy}-[2,3′-bipyridine]-5′-yl]acetic acid] was tested, and the EC50 was 7 nM.
Compound Cc1ncc(-c2cnc(OCCCC(C)C)c(F)c2)c(N2CCC(C)(C)CC2)c1[C@H](OC(C)(C)C)C(=O)O [Example 394, (2S)-2-(tert-butoxy)-2-[4-(4,4-dimethylpiperidin-1-yl)-5′-fluoro-6-methyl-6′-[(4-methylpentyl)oxy]-[3,3′-bipyridine]-5-yl]acetic acid] has an EC50 of 3 nM.
Compound COc1c(F)cc(-c2c(CN3CCC3)nc(C)c([C@H](OC(C)(C)C)C(=O)O)c2N2CCC(C)(C)CC2)cc1F [Example 196, (2S)-2-{6-[(Azetidin-1-yl)methyl]-5-(3,5-difluoro-4-methoxyphenyl)-4-(4,4-dimethylpiperidin-1-yl)-2-methylpyridin-3-yl}-2-(tert-butoxy)acetic acid] has an EC50 of 19 nM.
COc1ccc(-c2cnc(C)c([C@H](OC(C)(C)C)C(=O)O)c2N2CCC(C)(C)CC2)c(F)c1F [Example 149, (2S)-2-(tert-Butoxy)-2-[5-(2,3-difluoro-4-methoxyphenyl)-4-(4,4-dimethylpiperidin-1-yl)-2-methylpyridin-3-yl]acetic acid] showed an EC50 of 6 nM.
For Cc1ncc(-c2ccc(/C=C/C(C)C)nc2)c(N2CCC(C)(C)CC2)c1[C@H](OC(C)(C)C)C(=O)O [Example 421, (S,E)-2-(tert-Butoxy)-2-(4-(4,4-dimethylpiperidin-1-yl)-6-methyl-6′-(3-methylbut-1-en-1-yl)-[3, 3′-bipyridin]-5-yl)acetic acid], the EC50 was 8 nM.
Cc1cc(F)ccc1CCOc1ncc(-c2cnc(C)c([C@H](OC(C)(C)C)C(=O)O)c2N2CCC(C)(C)CC2)cc1F [Example 398, (2S)-2-(tert-butoxy)-2-[4-(4,4-dimethylpiperidin-1-yl)-5′-fluoro-6′-[2-(4-fluoro-2-methylphenyl)ethoxy]-6-methyl-[3,3′-bipyridine]-5-yl]acetic acid] gave an EC50 of 2 nM.
Compound Cc1ncc(-c2ccc(OCc3ccccc3F)cn2)c(N2CCC(C)(C)CC2)c1[C@H](OC(C)(C)C)C(=O)O [Example 348, (2S)-2-(tert-butoxy)-2-[4′-(4,4-dimethylpiperidin-1-yl)-5-[(2-fluorophenyl)methoxy]-6′-methyl-[2,3′-bipyridine]-5′-yl]acetic acid] has an EC50 of 0.6 nM.
Cc1ncc(-c2cnc(O[C@H](C)c3ccccc3)c(F)c2)c(N2CCC(C)(C)CC2)c1[C@H](OC(C)(C)C)C(=O)O [Example 396, (2S)-2-(tert-butoxy)-2-[4-(4,4-dimethylpiperidin-1-yl)-5′-fluoro-6-methyl-6′-[(1R)-1-phenylethoxy]-[3,3′-bipyridine]-5-yl]acetic acid] showed an EC50 of 2 nM.
Cc1ncc(-c2ccc(OCCc3ccc(F)cc3)cn2)c(N2CCC(C)(C)CC2)c1[C@H](OC(C)C)C(=O)O [Example 271, (S)-2-(4′-(4,4-Dimethylpiperidin-1-yl)-5-(4-fluorophenethoxy)-6′-methyl-[2, 3′-bipyridin]-5′-yl)-2-isopropoxyacetic acid] showed an EC50 of 3 nM.
Work on CCC(C)(C)O[C@H](C(=O)O)c1c(C)ncc(-c2ccc(OCCc3ccc(F)cc3)c(F)c2)c1N1CCC(C)(C)CC1 [Example 226, (S)-2-(4-(4,4-Dimethylpiperidin-1-yl)-5-(3-fluoro-4-(4-fluorophenethoxy)phenyl)-2-methylpyridin-3-yl)-2-(tert-pentyloxy)acetic acid] yielded an EC50 of 5 nM.
Compound Cc1nc(-c2cnn(C)c2)c(-c2ccc(OCCc3ccc(F)cc3)cc2)c(N2CCC(C)(C)CC2)c1[C@H](OC(C)(C)C)C(=O)O [Example 36, (S)-2-(tert-Butoxy)-2-(4-(4,4-dimethylpiperidin-1-yl)-5-(4-(4-fluorophenethoxy)phenyl)-2-methyl-6-(1-methyl-H-pyrazol-4-yl)pyridin-3-yl)acetic acid] has an EC50 of 4 nM.
Cc1ccc(F)cc1CCOc1ccc(-c2cnc(C)c([C@H](OC(C)(C)C)C(=O)O)c2N2CCC(C)(C)CC2)nc1 [Example 295, (2S)-2-(tert-butoxy)-2-[4′-(4,4-dimethylpiperidin-1-yl)-5-[2-(5-fluoro-2-methylphenyl)ethoxy]-6′-methyl-[2,3′-bipyridine]-5′-yl]acetic acid] gave an EC50 of 2 nM.
Compound Cc1cccc(Cl)c1C(C)Oc1ccc(-c2cnc(C)c([C@H](OC(C)(C)C)C(=O)O)c2N2CCC(C)(C)CC2)cn1 (stereo partly drawn) [Example 424, (2S)-2-(tert-Butoxy)-2-(6′-(1-(2-chloro-6-methylphenyl)ethoxy)-4-(4,4-dimethylpiperidin-1-yl)-6-methyl-[3, 3′-bipyridin]-5-yl)acetic acid] has an EC50 of 16 nM.
CCC(CC)COc1ccc(-c2cnc(C)c([C@H](OC(C)(C)C)C(=O)O)c2N2CCC(C)(C)CC2)nc1 [Example 359, (2S)-2-(tert-butoxy)-2-[4′-(4,4-dimethylpiperidin-1-yl)-5-(2-ethylbutoxy)-6′-methyl-[2,3′-bipyridine]-5′-yl]acetic acid] gave an EC50 of 2 nM.
Work on Cc1ncc(-c2ccc([C@H](O)CC(C)C)nc2)c(N2CCC(C)(C)CC2)c1[C@H](OC(C)(C)C)C(=O)O [Example 433, (S)-2-tert-butoxy-2-(4-(4,4-dimethylpiperidin-1-yl)-6′-((R)-1-hydroxy-3-methylbutyl)-6-methyl-3,3′-bipyridin-5-yl)acetic acid] yielded an EC50 of 25 nM.
Cc1nc(NCCCN(C)C)c(-c2ccc(OCCc3ccc(F)cc3)cc2)c(N2CCC(C)(C)CC2)c1[C@H](OC(C)(C)C)C(=O)O [Example 40, (S)-2-(tert-Butoxy)-2-(6-((3-(dimethylamino)propyl)amino)-4-(4,4-dimethylpiperidin-1-yl)-5-(4-(4-fluorophenethoxy)phenyl)-2-methylpyridin-3-yl)acetic acid] showed an EC50 of 2 nM.
